From PubChem BioAssay (NCI)
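Test compounds were applied to cells in 96-well plates for 48 hours at 5 doses. TGI denotes the concentration required for complete inhibition of growth.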

Columns and labels:
Test in all cases: inhibition of tumour cell growth, NCI panel, 48 h
[1] = tested on: 786-0 renal
[2] = tested on: A498 renal
[3] = tested on: A549 NSCLC
[4] = tested on: ACHN renal
[5] = tested on: CAKI-1 renal
[6] = tested on: CCRF-CEM leukemia
[7] = tested on: COLO 205 colon
[8] = tested on: DLD-1 colon
[9] = tested on: DMS 114 small cell lung
[10] = tested on: DMS 273 small cell lung
[11] = tested on: EKVX NSCLC
[12] = tested on: HCC-2998 colon
[13] = tested on: HCT-116 colon
[14] = tested on: HCT-15 colon
[15] = tested on: HL-60(TB) leukemia
[16] = tested on: HOP-18 NSCLC
[17] = tested on: HOP-62 NSCLC
[18] = tested on: HOP-92 NSCLC
[19] = tested on: HT29 colon
[20] = tested on: IGROV1 ovarian
[21] = tested on: K-562 leukemia
[22] = tested on: KM12 colon
[23] = tested on: KM20L2 colon
[24] = tested on: LOX IMVI melanoma
[25] = tested on: M14 melanoma
[26] = tested on: M19-MEL melanoma
[27] = tested on: MALME-3M melanoma
[28] = tested on: MOLT-4 leukemia
[29] = tested on: NCI-H226 lung
[30] = tested on: NCI-H23 lung
[31] = tested on: NCI-H460 lung
[32] = tested on: NCI-H522 lung
[33] = tested on: OVCAR-3 ovarian
[34] = tested on: OVCAR-4 ovarian
[35] = tested on: OVCAR-5 ovarian
[36] = tested on: OVCAR-8 ovarian
[37] = tested on: RPMI-8226 leukemia
[38] = tested on: SF-268 CNS
[39] = tested on: SF-295 CNS
[40] = tested on: SF-539 CNS
[41] = tested on: SK-MEL-2 melanoma
[42] = tested on: SK-MEL-28 melanoma
[43] = tested on: SK-MEL-5 melanoma
[44] = tested on: SK-OV-3 ovarian
[45] = tested on: SN12C renal
[46] = tested on: SNB-19 CNS
[47] = tested on: SNB-75 CNS
[48] = tested on: SNB-78 CNS
[49] = tested on: SR leukemia
[50] = tested on: SW-620 colon
[51] = tested on: TK-10 renal
[52] = tested on: U251 CNS
[53] = tested on: UACC-257 melanoma
[54] = tested on: UACC-62 melanoma
[55] = tested on: XF 498 CNS
[56] = tested on: LXFL 529 NSCLC
[57] = tested on: RXF 393 renal
[58] = tested on: UO-31 renal

`On1c(-c2ccccc2)c(-c2ccccc2N2CCCC2)c2ccccc21` showed a TGI [1] greater than 100 µM, a TGI [2] greater than 100 µM and a TGI [3] greater than 100 µM. The TGI [4] was greater than 100 µM, the TGI [5] was greater than 100 µM and the TGI [6] was greater than 100 µM. It also gave a TGI [7] greater than 100 µM, a TGI [8] greater than 100 µM and a TGI [9] greater than 100 µM. It also gave a TGI [10] greater than 100 µM, a TGI [11] greater than 100 µM and a TGI [12] greater than 100 µM. For the same molecule, the TGI [13] was greater than 100 µM, the TGI [14] was greater than 100 µM and the TGI [15] was greater than 100 µM. It also gave a TGI [16] greater than 100 µM, a TGI [17] greater than 100 µM and a TGI [18] greater than 100 µM. It also gave a TGI [19] greater than 100 µM, a TGI [20] greater than 100 µM and a TGI [21] greater than 100 µM. It also gave a TGI [22] greater than 100 µM, a TGI [23] greater than 100 µM and a TGI [24] greater than 100 µM. It also gave a TGI [25] greater than 100 µM, a TGI [26] greater than 100 µM and a TGI [27] greater than 100 µM. The TGI [28] was greater than 100 µM, the TGI [29] was greater than 100 µM and the TGI [30] was greater than 100 µM. It also gave a TGI [31] greater than 100 µM, a TGI [32] greater than 100 µM and a TGI [33] greater than 100 µM. It also gave a TGI [34] greater than 100 µM, a TGI [35] greater than 100 µM and a TGI [36] greater than 100 µM. The TGI [37] was greater than 100 µM, the TGI [38] was greater than 100 µM and the TGI [39] was greater than 100 µM. For the same molecule, the TGI [40] was greater than 100 µM, the TGI [41] was greater than 100 µM and the TGI [42] was greater than 100 µM. It also gave a TGI [43] greater than 100 µM, a TGI [44] greater than 100 µM and a TGI [45] greater than 100 µM. It also gave a TGI [46] greater than 100 µM, a TGI [47] greater than 100 µM and a TGI [48] greater than 100 µM. For the same molecule, the TGI [49] was greater than 100 µM, the TGI [50] was greater than 100 µM and the TGI [51] was greater than 100 µM. The TGI [52] was greater than 100 µM, the TGI [53] was greater than 100 µM and the TGI [54] was greater than 100 µM. It also gave a TGI [55] greater than 100 µM.

`O=C1CCC(c2ccccc2)=NN1c1nsc2ccccc12` was tested, and the TGI [3] was greater than 100 µM, the TGI [4] was greater than 100 µM and the TGI [6] was greater than 100 µM. It also gave a TGI [7] greater than 100 µM, a TGI [9] greater than 100 µM and a TGI [10] greater than 100 µM. It also gave a TGI [11] greater than 100 µM, a TGI [12] greater than 100 µM and a TGI [13] greater than 100 µM. The TGI [14] was greater than 100 µM, the TGI [15] was greater than 100 µM and the TGI [16] was greater than 100 µM. It also gave a TGI [17] greater than 100 µM, a TGI [18] greater than 100 µM and a TGI [19] greater than 100 µM. It also gave a TGI [20] greater than 100 µM, a TGI [21] greater than 100 µM and a TGI [22] greater than 100 µM. The TGI [23] was greater than 100 µM, the TGI [24] was greater than 100 µM and the TGI [56] was greater than 100 µM. The TGI [25] was greater than 100 µM, the TGI [26] was greater than 100 µM and the TGI [28] was greater than 100 µM. The TGI [30] was greater than 100 µM, the TGI [31] was greater than 100 µM and the TGI [33] was greater than 100 µM. The TGI [34] was greater than 100 µM, the TGI [35] was greater than 100 µM and the TGI [36] was greater than 100 µM. The TGI [37] was greater than 100 µM, the TGI [57] was greater than 100 µM and the TGI [38] was greater than 100 µM. The TGI [40] was greater than 100 µM, the TGI [41] was greater than 100 µM and the TGI [42] was greater than 100 µM. It also gave a TGI [43] greater than 100 µM, a TGI [45] greater than 100 µM and a TGI [46] greater than 100 µM. It also gave a TGI [47] greater than 100 µM, a TGI [48] greater than 100 µM and a TGI [49] greater than 100 µM. The TGI [50] was greater than 100 µM, the TGI [51] was greater than 100 µM and the TGI [52] was greater than 100 µM. It also gave a TGI [53] greater than 100 µM, a TGI [54] greater than 100 µM and a TGI [58] greater than 100 µM.

In the case of `CN(C)CCC(/C=C/c1ccccc1)=N\Nc1ccccc1`, the TGI [1] is reported as 11.1 µM, the TGI [2] is reported as 28.2 µM and the TGI [3] is reported as 4.21 µM. It also gave a TGI [4] of 2.31 µM, a TGI [6] of 15.2 µM and a TGI [7] of 3.7 µM. For the same molecule, the TGI [8] was 12.5 µM, the TGI [9] was 17.3 µM and the TGI [10] was 6.5 µM. For the same molecule, the TGI [11] was 6.47 µM, the TGI [13] was 10.8 µM and the TGI [14] was 2.43 µM. For the same molecule, the TGI [15] was 4.28 µM, the TGI [16] was 16.6 µM and the TGI [17] was 8.93 µM. The TGI [19] was 15.4 µM, the TGI [20] was 16.5 µM and the TGI [21] was 10.5 µM. For the same molecule, the TGI [22] was 13.2 µM, the TGI [23] was 0.655 µM and the TGI [24] was 0.454 µM. It also gave a TGI [56] of 0.462 µM, a TGI [25] of 13 µM and a TGI [26] of 3.63 µM. The TGI [27] was 13.1 µM, the TGI [28] was 15 µM and the TGI [30] was 13.9 µM. The TGI [31] was 10.7 µM, the TGI [32] was 8.98 µM and the TGI [33] was 6.5 µM. The TGI [34] was 17.1 µM, the TGI [35] was 3.97 µM and the TGI [36] was 23.9 µM. It also gave a TGI [37] of 8.52 µM, a TGI [57] of 18.6 µM and a TGI [38] of 10.4 µM. It also gave a TGI [39] of 2.21 µM, a TGI [40] of 4.02 µM and a TGI [42] of 3.54 µM. The TGI [43] was 13.1 µM, the TGI [44] was 9.8 µM and the TGI [45] was 11.6 µM. The TGI [46] was 14.1 µM, the TGI [47] was 13.7 µM and the TGI [48] was 14.7 µM. It also gave a TGI [50] of 2.06 µM, a TGI [51] of 4.61 µM and a TGI [52] of 4.58 µM. The TGI [53] was 9.76 µM, the TGI [54] was 3.26 µM and the TGI [58] was 2.8 µM.

Molecule `COc1cccc(N2C(Cl)C(=O)C2c2c[nH]c3ccccc23)c1` (stereo not drawn) has a TGI [3] greater than 100 µM, a TGI [6] greater than 100 µM and a TGI [7] greater than 100 µM. It also gave a TGI [9] greater than 100 µM, a TGI [11] greater than 100 µM and a TGI [13] greater than 100 µM. It also gave a TGI [15] greater than 100 µM, a TGI [17] greater than 100 µM and a TGI [18] greater than 100 µM. It also gave a TGI [19] greater than 100 µM, a TGI [20] greater than 100 µM and a TGI [21] greater than 100 µM. For the same molecule, the TGI [22] was greater than 100 µM, the TGI [23] was greater than 100 µM and the TGI [56] was greater than 100 µM. For the same molecule, the TGI [25] was greater than 100 µM, the TGI [26] was greater than 100 µM and the TGI [27] was greater than 100 µM. The TGI [28] was greater than 100 µM, the TGI [30] was greater than 100 µM and the TGI [31] was greater than 100 µM. The TGI [32] was greater than 100 µM, the TGI [33] was greater than 100 µM and the TGI [34] was greater than 100 µM. The TGI [35] was greater than 100 µM, the TGI [36] was greater than 100 µM and the TGI [37] was greater than 100 µM. For the same molecule, the TGI [57] was greater than 100 µM, the TGI [38] was greater than 100 µM and the TGI [39] was greater than 100 µM. The TGI [41] was greater than 100 µM, the TGI [42] was greater than 100 µM and the TGI [43] was greater than 100 µM. For the same molecule, the TGI [44] was greater than 100 µM, the TGI [45] was greater than 100 µM and the TGI [46] was greater than 100 µM. For the same molecule, the TGI [49] was greater than 100 µM, the TGI [50] was greater than 100 µM and the TGI [51] was greater than 100 µM. It also gave a TGI [52] greater than 100 µM, a TGI [53] greater than 100 µM and a TGI [54] greater than 100 µM. It also gave a TGI [58] greater than 100 µM and a TGI [55] greater than 100 µM.
